Reference: patent US20250382273A1 (INSTITUT NATIONAL DE LA SANTE ET DE LA RECHERCHE MEDICALE, priority 2022, published 2025)
pEC50: −log10 of the molar value.

test system: M. tuberculosis H37Rv_gfp; type: cell-based, Mycobacterium tuberculosis; conditions: in combination with pretomanid 20 ng·mL−1; 5 days at 37° C.; […]; read-out: EC50 H37Rv_gfp

Structure (SMILES)	pEC50
O=C(Nc1nc2ccc(F)cc2s1)[C@@H]1C2C=CC(C2)[C@@H]1C(=O)O (stereo partly drawn) [Example 42, 3-[(6-fluoro-1,3-benzothiazol-2-yl)carbamoyl]bicyclo[2.2.1]hept-5-ene-2-carboxylic acid]	5.30 to 6.00
O=C(Nc1nc2ccc(C(F)(F)F)cc2s1)[C@@H]1C2C=CC(C2)[C@@H]1C(=O)O (stereo partly drawn) [Example 43, 3-[[6-(trifluoromethyl)-1,3-benzothiazol-2-yl]carbamoyl]bicyclo[2.2.1]hept-5-ene-2-carboxylic acid]	> 6.00
O=C(Nc1nc2ccc(OC(F)(F)F)cc2s1)[C@@H]1C2C=CC(C2)[C@@H]1C(=O)O (stereo partly drawn) [Example 44, 3-[[6-(trifluoromethoxy)-1,3-benzothiazol-2-yl]carbamoyl]bicyclo[2.2.1]hept-5-ene-2-carboxylic acid]	> 6.00
O=C1[C@@H]2[C@H](C(=O)N1c1nc3ccc(OC(F)(F)F)cc3s1)[C@@H]1C=C[C@H]2C1 [Example 45, (1R,2S,6R,7S)-4-[6-(trifluoromethoxy)-1,3-benzothiazol-2-yl]-4-azatricyclo[5.2.1.02,6]dec-8-ene-3,5-dione]	5.30 to 6.00
O=C(Nc1nc2ccc(Cl)cc2s1)[C@@H]1C2C=CC(C2)[C@@H]1C(=O)O (stereo partly drawn) [Example 46, 3-[(6-chloro-1,3-benzothiazol-2-yl)carbamoyl]bicyclo[2.2.1]hept-5-ene-2-carboxylic acid]	5.30 to 6.00
O=C(Nc1nc2ccc(Br)cc2s1)[C@@H]1C2C=CC(C2)[C@@H]1C(=O)O (stereo partly drawn) [Example 47, 3-[(6-bromo-1,3-benzothiazol-2-yl)carbamoyl]bicyclo[2.2.1]hept-5-ene-2-carboxylic acid]	> 6.00
O=C(Nc1nc2cc(Br)ccc2s1)[C@@H]1C2C=CC(C2)[C@@H]1C(=O)O (stereo partly drawn) [Example 48, 3-[(5-bromo-1,3-benzothiazol-2-yl)carbamoyl]bicyclo[2.2.1]hept-5-ene-2-carboxylic acid]	5.30 to 6.00
O=C(Nc1nc2ccc(I)cc2s1)[C@@H]1C2C=CC(C2)[C@@H]1C(=O)O (stereo partly drawn) [Example 49, 3-[(6-iodo-1,3-benzothiazol-2-yl)carbamoyl]bicyclo[2.2.1]hept-5-ene-2-carboxylic acid]	5.30 to 6.00
O=C(Nc1nc2ccc(-c3ccccc3)cc2s1)[C@@H]1C2C=CC(C2)[C@@H]1C(=O)O (stereo partly drawn) [Example 51]	> 6.00
O=C(Nc1nc2ccc(C3CCCCC3)cc2s1)[C@@H]1C2C=CC(C2)[C@@H]1C(=O)O (stereo partly drawn) [Example 52, 3-[(6-cyclohexyl-1,3-benzothiazol-2-yl)carbamoyl]bicyclo[2.2.1]hept-5-ene-2-carboxylic acid]	> 6.00
Cc1ccc(-c2ccc3nc(NC(=O)[C@@H]4C5C=CC(C5)[C@@H]4C(=O)O)sc3c2)cc1 (stereo partly drawn) [Example 53, 3-[[6-(p-tolyl)-1,3-benzothiazol-2-yl]carbamoyl]bicyclo[2.2.1]hept-5-ene-2-carboxylic acid]	> 6.00
COc1ccc(-c2ccc3nc(NC(=O)[C@@H]4C5C=CC(C5)[C@@H]4C(=O)O)sc3c2)cc1 (stereo partly drawn) [Example 54, 3-[[6-(4-methoxyphenyl)-1,3-benzothiazol-2-yl]carbamoyl]bicyclo[2.2.1]hept-5-ene-2-carboxylic acid]	> 6.00
O=C(Nc1nc2ccc(-c3ccc(Cl)cc3)cc2s1)[C@@H]1C2C=CC(C2)[C@@H]1C(=O)O (stereo partly drawn) [Example 55, 3-[[6-(4-chlorophenyl)-1,3-benzothiazol-2-yl]carbamoyl]bicyclo[2.2.1]hept-5-ene-2-carboxylic acid]	> 6.00
O=C(Nc1nc2ccc(-c3ccc(Cl)c(Cl)c3)cc2s1)[C@@H]1C2C=CC(C2)[C@@H]1C(=O)O (stereo partly drawn) [Example 56, 3-[[6-(3,4-dichlorophenyl)-1,3-benzothiazol-2-yl]carbamoyl]bicycle [2.2.1]hept-5-ene-2-carboxylic acid]	> 6.00
O=C(Nc1nc2ccc(-c3ccccc3C(F)(F)F)cc2s1)[C@@H]1C2C=CC(C2)[C@@H]1C(=O)O (stereo partly drawn) [Example 57, 3-[6-[[2-(trifluoromethyl)phenyl]-1,3-benzothiazol-2-yl]carbamoyl]bicyclo[2.2.1]hept-5-ene-2-carboxylic acid]	5.30 to 6.00
O=C1C2C3C=CC(C3)C2C(=O)N1c1nc2ccc(-c3ccccc3C(F)(F)F)cc2s1 [Example 58, (1R,2S,6R,7S)-4-[6-[[2-(trifluoromethyl)phenyl]-1,3-benzothiazol-2-yl]-4-azatricyclo [5.2.1.02,6]dec-8-ene-3,5-dione]	5.00 to 5.30
O=C(Nc1nc2ccc(-c3cccc(C(F)(F)F)c3)cc2s1)[C@@H]1C2C=CC(C2)[C@@H]1C(=O)O (stereo partly drawn) [Example 59, 3-[[6-[3-(trifluoromethyl)phenyl]-1,3-benzothiazol-2-yl]carbamoyl]bicyclo[2.2.1]hept-5-ene-2-carboxylic acid]	> 6.00
O=C(Nc1nc2ccc(-c3ccc(C(F)(F)F)cc3)cc2s1)[C@@H]1C2C=CC(C2)[C@@H]1C(=O)O (stereo partly drawn) [Example 60, 3-[[6-[4-(trifluoromethyl)phenyl]-1,3-benzothiazol-2-yl]carbamoyl]bicyclo[2.2.1]hept-5-ene-2-carboxylic acid]	> 6.00
O=C1[C@@H]2[C@H](C(=O)N1c1nc3ccc(-c4ccc(C(F)(F)F)cc4)cc3s1)[C@@H]1C=C[C@H]2C1 [Example 61, (1R,2S,6R,7S)-4-[6-[4-(trifluoromethyl)phenyl]-1,3-benzothiazol-2-yl]-4-azatricyclo[5.2.1.02,6]dec-8-ene-3,5-dione]	> 6.00
O=C(Nc1nc2ccc(-c3ccc(OC(F)(F)F)cc3)cc2s1)[C@@H]1C2C=CC(C2)[C@@H]1C(=O)O (stereo partly drawn) [Example 62, 3-[[6-[4-(trifluoromethoxy)phenyl]-1,3-benzothiazol-2-yl]carbamoyl]bicyclo[2.2.1]hept-5-ene-2-carboxylic acid]	> 6.00
O=C(Nc1nc2ccc(-c3ccncc3)cc2s1)[C@@H]1C2C=CC(C2)[C@@H]1C(=O)O (stereo partly drawn) [Example 64, 3-[[6-(4-pyridyl)-1,3-benzothiazol-2-yl]carbamoyl]bicyclo[2.2.1]hept-5-ene-2-carboxylic acid]	5.30 to 6.00
O=C1[C@@H]2C3C=CC(C3)[C@@H]2C(=O)N1c1nc2ccc(-c3ccc(F)nc3)cc2s1 [Example 65, (1R,2S,6R,7S)-4-[6-(6-fluoro-3-pyridyl)-1,3-benzothiazol-2-yl]-4-azatricyclo[5.2.1.02.6]dec-8-ene-3,5-dione]	5.30 to 6.00
O=C(O)C1C2C=CC(C2)[C@H]1C(=O)Nc1nc2ccc(-c3ccc(C(F)(F)F)nc3)cc2s1 (stereo partly drawn) [Example 66, 3-[[6-[6-(trifluoromethyl)-3-pyridyl]-1,3-benzothiazol-2-yl]carbamoyl]bicyclo [2.2.1]hept-5-ene-2-carboxylic acid]	> 6.00

same assay, conditions: in combination with pretomanid, unit inferred; read-out: average EC50 H37Rv_gfp

Structure (SMILES)	pEC50
COc1ccc(-c2ccc3nc(NC(=O)[C@@H]4C5C=CC(C5)[C@@H]4C(=O)O)sc3c2)cc1 (stereo partly drawn) [Example 54, 3-[[6-(4-methoxyphenyl)-1,3-benzothiazol-2-yl]carbamoyl]bicyclo[2.2.1]hept-5-ene-2-carboxylic acid]	6.96
O=C(Nc1nc2ccc(-c3ccc(C(F)(F)F)cc3)cc2s1)[C@@H]1C2C=CC(C2)[C@@H]1C(=O)O (stereo partly drawn) [Example 60, 3-[[6-[4-(trifluoromethyl)phenyl]-1,3-benzothiazol-2-yl]carbamoyl]bicyclo[2.2.1]hept-5-ene-2-carboxylic acid]	7.30

same assay, conditions: read-out: EC50 H37Rv_gfp

Structure (SMILES)	pEC50
O=C(Nc1nc2ccc(O)cc2s1)[C@@H]1C2C=CC(C2)[C@@H]1C(=O)O (stereo partly drawn) [Example 50, 3-[(6-hydroxy-1,3-benzothiazol-2-yl)carbamoyl]bicyclo[2.2.1]hept-5-ene-2-carboxylic acid]	4.70 to 5.00
O=C1[C@@H]2[C@H](C(=O)N1c1nc3ccc(-c4ccc(O)cc4)cc3s1)[C@@H]1C=C[C@H]2C1 [Example 63, (1R,2S,6R,7S)-4-[6-(4-hydroxyphenyl)-1,3-benzothiazol-2-yl]-4-azatricyclo[5.2.1.02,6]dec-8-ene-3,5-dione]	5.00 to 5.30
